Data published in the NIST ThermoML archive (doi:10.1021/acs.jced.5b01075).
Numbers after ± are expanded uncertainties.

Test: wn = mass fraction of the nth substance listed
Conditions: 100 kPa, Liquid; for speed of sound: Frequency=3 MHz, Sing-around technique in a fixed-path interferometer; for mass density: Vibrating tube method

C1CC[C@H]2CCCC[C@@H]2C1 [trans-decahydronaphthalene] + c1ccc2c(c1)CCCC2
speed of sound (293.15 K, w2 = 0.1003): 1405 ± 1.2 m/s | speed of sound (293.15 K, w2 = 0.2002): 1412.5 ± 1.3 m/s | speed of sound (293.15 K, w2 = 0.3): 1420.5 ± 1.3 m/s | speed of sound (293.15 K, w2 = 0.4002): 1428.8 ± 1.3 m/s | speed of sound (293.15 K, w2 = 0.5): 1437.7 ± 1.4 m/s | speed of sound (293.15 K, w2 = 0.6): 1446.9 ± 1.4 m/s | speed of sound (293.15 K, w2 = 0.7): 1456.8 ± 1.4 m/s | speed of sound (293.15 K, w2 = 0.8): 1467 ± 1.5 m/s | speed of sound (293.15 K, w2 = 0.8999): 1477.9 ± 1.5 m/s | mass density (293.15 K, w2 = 0.1003): 878.7 ± 0.23 kg/m3 | mass density (293.15 K, w2 = 0.2002): 887.89 ± 0.24 kg/m3 | mass density (293.15 K, w2 = 0.3): 897.28 ± 0.24 kg/m3 | mass density (293.15 K, w2 = 0.4002): 906.9 ± 0.25 kg/m3 | mass density (293.15 K, w2 = 0.5): 916.67 ± 0.25 kg/m3 | mass density (293.15 K, w2 = 0.6): 926.69 ± 0.26 kg/m3 | mass density (293.15 K, w2 = 0.7): 936.89 ± 0.27 kg/m3 | mass density (293.15 K, w2 = 0.8): 947.32 ± 0.29 kg/m3 | mass density (293.15 K, w2 = 0.8999): 957.95 ± 0.3 kg/m3 | speed of sound (303.15 K, w2 = 0.1003): 1364.8 ± 1.2 m/s | speed of sound (303.15 K, w2 = 0.2002): 1372.4 ± 1.3 m/s | speed of sound (303.15 K, w2 = 0.3): 1380.5 ± 1.3 m/s | speed of sound (303.15 K, w2 = 0.4002): 1388.9 ± 1.3 m/s | speed of sound (303.15 K, w2 = 0.5): 1397.9 ± 1.4 m/s | speed of sound (303.15 K, w2 = 0.6): 1407.2 ± 1.4 m/s | speed of sound (303.15 K, w2 = 0.7): 1417.2 ± 1.4 m/s | speed of sound (303.15 K, w2 = 0.8): 1427.6 ± 1.5 m/s | speed of sound (303.15 K, w2 = 0.8999): 1438.6 ± 1.5 m/s | mass density (303.15 K, w2 = 0.1003): 871.18 ± 0.23 kg/m3 | mass density (303.15 K, w2 = 0.2002): 880.33 ± 0.24 kg/m3 | mass density (303.15 K, w2 = 0.3): 889.67 ± 0.24 kg/m3 | mass density (303.15 K, w2 = 0.4002): 899.23 ± 0.25 kg/m3 | mass density (303.15 K, w2 = 0.5): 908.96 ± 0.25 kg/m3 | mass density (303.15 K, w2 = 0.6): 918.92 ± 0.26 kg/m3 | mass density (303.15 K, w2 = 0.7): 929.09 ± 0.27 kg/m3 | mass density (303.15 K, w2 = 0.8): 939.47 ± 0.29 kg/m3 | mass density (303.15 K, w2 = 0.8999): 950.07 ± 0.3 kg/m3 | speed of sound (313.15 K, w2 = 0.1003): 1325.3 ± 1.2 m/s | speed of sound (313.15 K, w2 = 0.2002): 1333.1 ± 1.3 m/s | speed of sound (313.15 K, w2 = 0.3): 1341.3 ± 1.3 m/s | speed of sound (313.15 K, w2 = 0.4002): 1349.9 ± 1.3 m/s | speed of sound (313.15 K, w2 = 0.5): 1358.9 ± 1.4 m/s | speed of sound (313.15 K, w2 = 0.6): 1368.4 ± 1.4 m/s | speed of sound (313.15 K, w2 = 0.7): 1378.4 ± 1.4 m/s | speed of sound (313.15 K, w2 = 0.8): 1388.9 ± 1.5 m/s | speed of sound (313.15 K, w2 = 0.8999): 1400 ± 1.5 m/s | mass density (313.15 K, w2 = 0.1003): 863.68 ± 0.23 kg/m3 | mass density (313.15 K, w2 = 0.2002): 872.76 ± 0.24 kg/m3 | mass density (313.15 K, w2 = 0.3): 882.05 ± 0.24 kg/m3 | mass density (313.15 K, w2 = 0.4002): 891.55 ± 0.25 kg/m3 | mass density (313.15 K, w2 = 0.5): 901.24 ± 0.25 kg/m3 | mass density (313.15 K, w2 = 0.6): 911.15 ± 0.26 kg/m3 | mass density (313.15 K, w2 = 0.7): 921.27 ± 0.27 kg/m3 | mass density (313.15 K, w2 = 0.8): 931.61 ± 0.29 kg/m3 | mass density (313.15 K, w2 = 0.8999): 942.17 ± 0.3 kg/m3 | speed of sound (323.15 K, w2 = 0.1003): 1286.7 ± 1.2 m/s | speed of sound (323.15 K, w2 = 0.2002): 1294.5 ± 1.2 m/s | speed of sound (323.15 K, w2 = 0.3): 1302.8 ± 1.3 m/s | speed of sound (323.15 K, w2 = 0.4002): 1311.5 ± 1.3 m/s | speed of sound (323.15 K, w2 = 0.5): 1320.7 ± 1.4 m/s | speed of sound (323.15 K, w2 = 0.6): 1330.2 ± 1.4 m/s | speed of sound (323.15 K, w2 = 0.7): 1340.4 ± 1.4 m/s | speed of sound (323.15 K, w2 = 0.8): 1350.9 ± 1.5 m/s | speed of sound (323.15 K, w2 = 0.8999): 1362 ± 1.5 m/s | mass density (323.15 K, w2 = 0.1003): 856.15 ± 0.23 kg/m3 | mass density (323.15 K, w2 = 0.2002): 865.18 ± 0.24 kg/m3 | mass density (323.15 K, w2 = 0.3): 874.42 ± 0.24 kg/m3 | mass density (323.15 K, w2 = 0.4002): 883.87 ± 0.25 kg/m3 | mass density (323.15 K, w2 = 0.5): 893.51 ± 0.26 kg/m3 | mass density (323.15 K, w2 = 0.6): 903.37 ± 0.26 kg/m3 | mass density (323.15 K, w2 = 0.7): 913.45 ± 0.27 kg/m3 | mass density (323.15 K, w2 = 0.8): 923.75 ± 0.29 kg/m3 | mass density (323.15 K, w2 = 0.8999): 934.26 ± 0.3 kg/m3 | speed of sound (333.15 K, w2 = 0.1003): 1248.7 ± 1.2 m/s | speed of sound (333.15 K, w2 = 0.2002): 1256.7 ± 1.2 m/s | speed of sound (333.15 K, w2 = 0.3): 1265.1 ± 1.3 m/s | speed of sound (333.15 K, w2 = 0.4002): 1273.9 ± 1.3 m/s | speed of sound (333.15 K, w2 = 0.5): 1283.1 ± 1.3 m/s | speed of sound (333.15 K, w2 = 0.6): 1292.7 ± 1.4 m/s | speed of sound (333.15 K, w2 = 0.7): 1303 ± 1.4 m/s | speed of sound (333.15 K, w2 = 0.8): 1313.5 ± 1.5 m/s | speed of sound (333.15 K, w2 = 0.8999): 1324.8 ± 1.5 m/s | mass density (333.15 K, w2 = 0.1003): 848.6 ± 0.24 kg/m3 | mass density (333.15 K, w2 = 0.2002): 857.58 ± 0.24 kg/m3 | mass density (333.15 K, w2 = 0.3): 866.77 ± 0.24 kg/m3 | mass density (333.15 K, w2 = 0.4002): 876.17 ± 0.25 kg/m3 | mass density (333.15 K, w2 = 0.5): 885.76 ± 0.26 kg/m3 | mass density (333.15 K, w2 = 0.6): 895.58 ± 0.26 kg/m3 | mass density (333.15 K, w2 = 0.7): 905.62 ± 0.27 kg/m3 | mass density (333.15 K, w2 = 0.8): 915.87 ± 0.29 kg/m3 | mass density (333.15 K, w2 = 0.8999): 926.34 ± 0.3 kg/m3 | mass density (343.15 K, w2 = 0.1003): 841 ± 0.5 kg/m3 | mass density (343.15 K, w2 = 0.2002): 850 ± 0.5 kg/m3 | mass density (343.15 K, w2 = 0.3): 859.1 ± 0.5 kg/m3 | mass density (343.15 K, w2 = 0.4002): 868.3 ± 0.5 kg/m3 | mass density (343.15 K, w2 = 0.5): 878 ± 0.5 kg/m3 | mass density (343.15 K, w2 = 0.6): 887.9 ± 0.5 kg/m3 | mass density (343.15 K, w2 = 0.7): 897.7 ± 0.5 kg/m3 | mass density (343.15 K, w2 = 0.8): 907.9 ± 0.5 kg/m3 | mass density (343.15 K, w2 = 0.8999): 918.5 ± 0.6 kg/m3 | mass density (353.1 K, w2 = 0.1003): 833.2 ± 0.5 kg/m3 | mass density (353.1 K, w2 = 0.2002): 842.3 ± 0.5 kg/m3 | mass density (353.1 K, w2 = 0.3): 851.4 ± 0.5 kg/m3 | mass density (353.1 K, w2 = 0.4002): 860.6 ± 0.5 kg/m3 | mass density (353.1 K, w2 = 0.5): 870.2 ± 0.5 kg/m3 | mass density (353.1 K, w2 = 0.6): 880 ± 0.5 kg/m3 | mass density (353.1 K, w2 = 0.7): 889.8 ± 0.5 kg/m3 | mass density (353.1 K, w2 = 0.8): 900 ± 0.5 kg/m3 | mass density (353.1 K, w2 = 0.8999): 910.5 ± 0.6 kg/m3 | mass density (363.1 K, w2 = 0.1003): 825.5 ± 0.5 kg/m3 | mass density (363.1 K, w2 = 0.2002): 834.6 ± 0.5 kg/m3 | mass density (363.1 K, w2 = 0.3): 843.5 ± 0.5 kg/m3 | mass density (363.1 K, w2 = 0.4002): 852.8 ± 0.5 kg/m3 | mass density (363.1 K, w2 = 0.5): 862.3 ± 0.5 kg/m3 | mass density (363.1 K, w2 = 0.6): 872.1 ± 0.5 kg/m3 | mass density (363.1 K, w2 = 0.7): 881.8 ± 0.5 kg/m3 | mass density (363.1 K, w2 = 0.8): 892 ± 0.5 kg/m3 | mass density (363.1 K, w2 = 0.8999): 902.4 ± 0.6 kg/m3 | mass density (373.1 K, w2 = 0.1003): 817.9 ± 0.5 kg/m3 | mass density (373.1 K, w2 = 0.2002): 826.9 ± 0.5 kg/m3 | mass density (373.1 K, w2 = 0.3): 835.8 ± 0.5 kg/m3 | mass density (373.1 K, w2 = 0.4002): 844.9 ± 0.5 kg/m3 | mass density (373.1 K, w2 = 0.5): 854.5 ± 0.5 kg/m3 | mass density (373.1 K, w2 = 0.6): 864.2 ± 0.5 kg/m3 | mass density (373.1 K, w2 = 0.7): 874 ± 0.5 kg/m3 | mass density (373.1 K, w2 = 0.8): 883.9 ± 0.5 kg/m3 | mass density (373.1 K, w2 = 0.8999): 894.4 ± 0.6 kg/m3
